Measured values published in ChEMBL document CHEMBL1201862, “PubChem BioAssay data set” (2004).
Each block holds one compound with its values, some of them ahead of it. The source made the active and inactive calls.

Legend:
[1] = target: Cell division cycle 7-related protein kinase (Homo sapiens, UniProt O00311); type: functional;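 note: value obtained from a kinome-wide kinase panel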
[2] = target: Cyclin-dependent kinase 19 (Homo sapiens, UniProt Q9BWU1); test: Navigating the Kinome. Panel member name: CDC2L6; type: functional
[3] = target: Ras and Rab interactor 1/Tyrosine-protein kinase ABL1 (Homo sapiens, UniProt P00519+Q13671); type: functional;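 note: biochemical TR-FRET dose-response test measuring inhibition of binding between Rin1 and Abl proteins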
[4] = target: Beta-2 adrenergic receptor (Homo sapiens, UniProt P07550); test: beta2AR agonists driving receptor internalization, dose response, cell-based, FAP fluorogen, flow cytometry, cherry pick 1 (AID 588763); type: functional
Aurora kinase A = target: T1, Aurora kinase A (Homo sapiens, UniProt O14965); type: functional;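 note: value from the Navigating the Kinome kinase panel profiling, panel entry STK6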
T1 sequence (O14965 whole entry): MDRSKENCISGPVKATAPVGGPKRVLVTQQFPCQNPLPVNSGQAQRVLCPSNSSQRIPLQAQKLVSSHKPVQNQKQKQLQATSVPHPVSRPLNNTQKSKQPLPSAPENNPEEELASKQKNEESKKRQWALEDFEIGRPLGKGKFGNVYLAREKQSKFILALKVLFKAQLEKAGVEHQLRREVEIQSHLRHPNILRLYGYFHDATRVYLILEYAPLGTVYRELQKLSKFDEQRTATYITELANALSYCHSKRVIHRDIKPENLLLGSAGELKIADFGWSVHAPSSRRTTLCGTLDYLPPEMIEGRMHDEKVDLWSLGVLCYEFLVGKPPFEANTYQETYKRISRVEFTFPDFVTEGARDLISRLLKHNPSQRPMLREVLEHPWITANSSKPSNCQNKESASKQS

[5] = target: Vascular endothelial growth factor receptor 2 (Homo sapiens, UniProt P35968); type: functional
Aurora kinase B = Aurora kinase B (Homo sapiens, UniProt Q96GD4); type: functional
Escherichia coli [6] = test: microbe, parasite or virus in culture
Escherichia coli [7] = test: microbe, parasite or virus in culture; remark: listed apart in the source
Trypsin = Trypsin (Sus scrofa, UniProt P00761); test: porcine trypsin inhibitors, dose response, selectivity assay for Rce1 protease inhibitor project, biochemical, quenched peptide fluorescence, cherry-pick (AID 488789)
CAAX prenyl protease 2 [8] = target: CAAX prenyl protease 2 (Saccharomyces cerevisiae S288c, UniProt Q03530); type: biochemical
CAAX prenyl protease 2 [9] = target: CAAX prenyl protease 2 (Homo sapiens, UniProt Q9Y256); test: human Rce1 protease inhibitors, dose response, biochemical, yeast membranes, quenched-peptide fluorescence, cherry-pick (AID 588849)

Chain of Beta-2 adrenergic receptor (P07550 whole entry): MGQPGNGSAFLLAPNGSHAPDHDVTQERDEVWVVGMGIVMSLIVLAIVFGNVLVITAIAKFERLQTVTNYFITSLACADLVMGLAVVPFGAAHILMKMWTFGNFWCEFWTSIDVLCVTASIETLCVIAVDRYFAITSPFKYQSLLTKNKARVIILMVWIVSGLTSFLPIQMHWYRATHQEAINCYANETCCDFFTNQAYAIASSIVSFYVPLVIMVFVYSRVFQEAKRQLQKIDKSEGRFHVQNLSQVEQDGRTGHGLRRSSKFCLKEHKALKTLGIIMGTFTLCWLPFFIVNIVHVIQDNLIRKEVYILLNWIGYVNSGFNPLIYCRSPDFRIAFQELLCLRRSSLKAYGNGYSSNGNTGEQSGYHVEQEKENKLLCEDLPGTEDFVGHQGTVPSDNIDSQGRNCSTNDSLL
Chain of Vascular endothelial growth factor receptor 2 (P35968 whole entry): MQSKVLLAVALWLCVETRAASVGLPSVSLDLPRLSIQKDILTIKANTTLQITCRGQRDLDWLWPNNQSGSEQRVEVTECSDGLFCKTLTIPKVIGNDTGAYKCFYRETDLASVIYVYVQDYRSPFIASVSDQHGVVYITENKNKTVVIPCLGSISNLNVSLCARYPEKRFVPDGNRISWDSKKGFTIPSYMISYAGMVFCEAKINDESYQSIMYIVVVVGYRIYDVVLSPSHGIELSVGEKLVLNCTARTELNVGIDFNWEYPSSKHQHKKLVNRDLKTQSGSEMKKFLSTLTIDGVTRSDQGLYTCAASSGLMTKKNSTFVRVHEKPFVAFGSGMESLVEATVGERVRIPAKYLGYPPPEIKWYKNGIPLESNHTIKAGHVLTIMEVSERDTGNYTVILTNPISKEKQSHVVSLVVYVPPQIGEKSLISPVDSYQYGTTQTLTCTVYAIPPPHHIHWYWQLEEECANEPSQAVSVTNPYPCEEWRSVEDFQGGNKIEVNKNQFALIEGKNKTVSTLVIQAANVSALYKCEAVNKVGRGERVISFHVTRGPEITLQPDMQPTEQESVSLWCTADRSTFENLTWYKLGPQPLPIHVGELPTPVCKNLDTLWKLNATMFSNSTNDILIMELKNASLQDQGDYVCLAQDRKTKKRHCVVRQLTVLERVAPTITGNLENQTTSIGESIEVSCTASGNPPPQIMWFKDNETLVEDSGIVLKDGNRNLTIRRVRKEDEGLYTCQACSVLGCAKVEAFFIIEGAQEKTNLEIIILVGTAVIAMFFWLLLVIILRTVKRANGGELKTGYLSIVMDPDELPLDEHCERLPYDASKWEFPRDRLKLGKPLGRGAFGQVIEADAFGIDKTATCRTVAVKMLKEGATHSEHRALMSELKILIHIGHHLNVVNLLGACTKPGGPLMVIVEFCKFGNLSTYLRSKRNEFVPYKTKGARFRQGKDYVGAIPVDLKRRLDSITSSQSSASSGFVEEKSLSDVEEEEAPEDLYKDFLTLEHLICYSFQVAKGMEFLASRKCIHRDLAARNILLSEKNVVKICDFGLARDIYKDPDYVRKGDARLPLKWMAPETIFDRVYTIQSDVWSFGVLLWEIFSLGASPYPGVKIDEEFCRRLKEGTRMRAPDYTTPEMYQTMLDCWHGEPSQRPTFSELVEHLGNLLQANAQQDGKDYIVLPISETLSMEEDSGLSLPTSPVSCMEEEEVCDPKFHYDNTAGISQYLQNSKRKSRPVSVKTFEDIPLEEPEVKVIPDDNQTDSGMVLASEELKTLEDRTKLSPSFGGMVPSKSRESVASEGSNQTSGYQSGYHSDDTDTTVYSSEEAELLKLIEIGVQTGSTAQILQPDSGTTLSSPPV
Chain of CAAX prenyl protease 2 (Saccharomyces cerevisiae S288c, UniProt Q03530) (Q03530 whole entry): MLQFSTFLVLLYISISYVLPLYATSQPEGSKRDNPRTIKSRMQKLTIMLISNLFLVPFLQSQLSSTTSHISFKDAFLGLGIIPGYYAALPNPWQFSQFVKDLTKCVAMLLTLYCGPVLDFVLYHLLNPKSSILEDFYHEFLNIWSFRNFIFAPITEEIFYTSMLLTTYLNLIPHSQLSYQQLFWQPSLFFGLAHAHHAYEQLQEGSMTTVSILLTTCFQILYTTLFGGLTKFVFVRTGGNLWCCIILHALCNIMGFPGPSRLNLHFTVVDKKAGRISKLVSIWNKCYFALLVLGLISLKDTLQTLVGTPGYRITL
Chain of Cyclin-dependent kinase 19 (Q9BWU1 whole entry): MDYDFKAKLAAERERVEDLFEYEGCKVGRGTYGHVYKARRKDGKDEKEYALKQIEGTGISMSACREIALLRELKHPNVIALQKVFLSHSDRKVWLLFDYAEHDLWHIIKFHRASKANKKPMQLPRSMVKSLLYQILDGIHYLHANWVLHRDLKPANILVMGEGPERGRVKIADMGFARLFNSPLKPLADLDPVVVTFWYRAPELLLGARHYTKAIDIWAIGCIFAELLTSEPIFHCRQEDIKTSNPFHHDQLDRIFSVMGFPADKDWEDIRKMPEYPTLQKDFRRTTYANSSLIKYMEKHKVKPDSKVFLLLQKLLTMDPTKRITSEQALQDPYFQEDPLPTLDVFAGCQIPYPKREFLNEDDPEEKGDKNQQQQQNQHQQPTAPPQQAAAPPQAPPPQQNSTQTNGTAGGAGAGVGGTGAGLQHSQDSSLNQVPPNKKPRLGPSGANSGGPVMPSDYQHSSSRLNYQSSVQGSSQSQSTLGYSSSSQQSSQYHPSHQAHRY
Chain of Cell division cycle 7-related protein kinase (O00311 whole entry): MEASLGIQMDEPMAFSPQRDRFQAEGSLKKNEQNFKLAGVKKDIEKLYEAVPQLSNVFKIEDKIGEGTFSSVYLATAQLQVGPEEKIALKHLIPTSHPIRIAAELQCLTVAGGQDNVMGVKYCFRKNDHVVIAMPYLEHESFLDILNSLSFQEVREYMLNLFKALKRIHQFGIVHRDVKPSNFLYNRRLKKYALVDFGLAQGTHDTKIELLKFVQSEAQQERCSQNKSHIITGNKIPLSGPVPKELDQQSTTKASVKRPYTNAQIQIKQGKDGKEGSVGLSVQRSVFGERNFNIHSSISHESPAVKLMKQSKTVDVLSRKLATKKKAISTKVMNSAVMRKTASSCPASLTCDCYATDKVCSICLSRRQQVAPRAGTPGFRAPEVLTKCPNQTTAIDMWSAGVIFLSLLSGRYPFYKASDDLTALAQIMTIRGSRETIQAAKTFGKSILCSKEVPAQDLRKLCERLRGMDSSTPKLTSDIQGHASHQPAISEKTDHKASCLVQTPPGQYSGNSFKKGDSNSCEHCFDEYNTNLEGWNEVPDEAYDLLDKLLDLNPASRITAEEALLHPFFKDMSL
Chain of Ras and Rab interactor 1/Tyrosine-protein kinase ABL1 (P00519 whole entry): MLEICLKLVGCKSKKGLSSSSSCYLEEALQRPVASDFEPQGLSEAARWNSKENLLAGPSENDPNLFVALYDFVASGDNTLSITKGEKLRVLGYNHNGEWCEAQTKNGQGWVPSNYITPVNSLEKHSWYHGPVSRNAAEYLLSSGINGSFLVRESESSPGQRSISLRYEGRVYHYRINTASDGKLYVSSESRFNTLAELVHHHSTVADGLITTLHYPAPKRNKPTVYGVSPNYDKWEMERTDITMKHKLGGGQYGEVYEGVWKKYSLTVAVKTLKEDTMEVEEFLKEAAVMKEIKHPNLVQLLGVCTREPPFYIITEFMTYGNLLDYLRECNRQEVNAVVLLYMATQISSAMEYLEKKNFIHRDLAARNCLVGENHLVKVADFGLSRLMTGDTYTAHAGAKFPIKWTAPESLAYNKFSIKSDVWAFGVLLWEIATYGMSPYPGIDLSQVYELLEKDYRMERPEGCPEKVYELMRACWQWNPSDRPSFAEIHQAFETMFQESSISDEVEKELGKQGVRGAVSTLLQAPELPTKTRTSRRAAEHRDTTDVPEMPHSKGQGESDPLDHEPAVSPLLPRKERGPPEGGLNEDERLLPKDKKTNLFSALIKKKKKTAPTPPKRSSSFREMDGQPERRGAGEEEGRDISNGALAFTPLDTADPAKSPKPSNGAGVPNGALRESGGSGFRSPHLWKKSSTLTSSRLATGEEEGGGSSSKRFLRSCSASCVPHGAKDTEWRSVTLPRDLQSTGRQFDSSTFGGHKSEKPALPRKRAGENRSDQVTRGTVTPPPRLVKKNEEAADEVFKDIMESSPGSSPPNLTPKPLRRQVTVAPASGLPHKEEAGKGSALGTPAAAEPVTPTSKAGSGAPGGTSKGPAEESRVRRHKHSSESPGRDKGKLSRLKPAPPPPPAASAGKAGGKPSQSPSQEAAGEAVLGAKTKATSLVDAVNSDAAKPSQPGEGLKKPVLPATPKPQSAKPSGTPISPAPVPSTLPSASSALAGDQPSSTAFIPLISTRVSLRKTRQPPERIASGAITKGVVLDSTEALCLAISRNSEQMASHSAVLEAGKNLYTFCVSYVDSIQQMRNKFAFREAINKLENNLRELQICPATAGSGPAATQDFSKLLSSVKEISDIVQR
Chain of Ras and Rab interactor 1/Tyrosine-protein kinase ABL1 (Q13671 whole entry): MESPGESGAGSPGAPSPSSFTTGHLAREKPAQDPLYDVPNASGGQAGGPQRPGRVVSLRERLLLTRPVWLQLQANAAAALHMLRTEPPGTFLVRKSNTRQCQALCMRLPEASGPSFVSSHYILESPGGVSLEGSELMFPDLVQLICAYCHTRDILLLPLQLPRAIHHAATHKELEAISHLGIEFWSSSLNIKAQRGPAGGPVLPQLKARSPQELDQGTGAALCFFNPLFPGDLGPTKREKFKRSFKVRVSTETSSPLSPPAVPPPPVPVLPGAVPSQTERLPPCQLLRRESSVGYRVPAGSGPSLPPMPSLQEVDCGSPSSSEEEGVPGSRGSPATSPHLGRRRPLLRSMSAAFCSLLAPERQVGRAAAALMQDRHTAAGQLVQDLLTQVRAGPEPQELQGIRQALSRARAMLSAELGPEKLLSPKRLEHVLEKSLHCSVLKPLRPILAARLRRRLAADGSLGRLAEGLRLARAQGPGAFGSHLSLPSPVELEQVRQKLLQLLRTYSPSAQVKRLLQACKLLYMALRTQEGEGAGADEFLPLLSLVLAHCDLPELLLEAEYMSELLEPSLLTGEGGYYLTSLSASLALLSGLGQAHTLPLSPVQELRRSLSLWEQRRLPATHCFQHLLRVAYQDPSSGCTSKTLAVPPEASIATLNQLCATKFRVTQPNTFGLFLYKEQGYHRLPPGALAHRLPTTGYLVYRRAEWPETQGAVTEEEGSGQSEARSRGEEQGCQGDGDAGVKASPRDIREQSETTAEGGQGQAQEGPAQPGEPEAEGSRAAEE

Compound: O=C(Nc1ccc(O)cc1C(=O)O)c1cccc(Br)c1
IC50 [3]: 19.1 µM (inactive)

Compound: COc1ccc(-c2cc(C(F)(F)F)nc(S(=O)(=O)CCC(=O)N3CCOCC3)n2)cc1
EC50 [4]: 25.3 µM (inactive)

Compound: COC(=O)c1cc(C(=O)Nc2cc(C)ccn2)cc([N+](=O)[O-])c1
AC50 (Escherichia coli [6]): 132 µM (active)
AC50 (Escherichia coli [7]): 63.9 µM (active)

Compound: Cc1ccc(NC(=O)c2ccc(N3CCOCC3)c([N+](=O)[O-])c2)cc1S(=O)(=O)N1CCOCC1
EC50 [4]: 10.1 µM (inactive)

More lines, now with the values ahead:

Ki [1]: 3.98 µM (active)
Ki [2]: > 100 µM (inactive)
Compound: O=C(O)c1ccccc1Nc1ccnc(N2CCCCC2)n1

Ki (Aurora kinase A): 1 µM (active)
Ki [5]: 0.631 µM (active)
Ki (Aurora kinase B): 0.0501 µM (active)
Compound: Cc1n[nH]c2c1c(=O)n(C)c1ccccc21

AC50 (Trypsin): 13.9 µM (active)
AC50 (CAAX prenyl protease 2 [8]): 7.82 µM (active)
AC50 (CAAX prenyl protease 2 [9]): 2.8 µM (active)
Compound: COc1ccc(C[C@H]2c3cc(O)c(OC)cc3CC[N+]2(C)[O-])cc1O (stereo partly drawn)
